In PMC6199744, “Development of Chemical Proteomics for the Folateome and Analysis of the Kinetoplastid Folateome” (ACS Infectious Diseases, 2018):
Values joined by “and” are separate entries in the source; they are usually repeats but may differ in a detail not shown here. Equal values may be shown once. Read-outs that look alike come from different tables or passages of the source.

Tested on: T. brucei lysate proteins
Type: binding, Trypanosoma brucei

CCCCCCOc1cccc(Cc2cnc(N)nc2N)c1 [compound 2]
fold change - vehicle control: 1 and 0.55 and 0.88 and 0.98 and 0.99
fold change - vehicle control (protein RHS6A (CZT00028360.1)): 0.94
fold change - vehicle control (protein TB09.160.1250 HY[…], CONSERVED): 0.96
fold change - vehicle control (protein TB09.160.3670 RIBOSOMAL PROTEIN S6, PUTATIVE): 0.84
fold change - vehicle control (protein TB09.211.2630 60S RIBOSOMAL PROTEIN L23, PUTATIVE): 1.12
fold change - vehicle control (protein TB09.211.4513 KIN[…] PROTEIN KMP-11): 0.9
fold change - vehicle control (protein TB11.V4.0005 RIBONUCLEOSIDE-DIPHOSPHATE REDUCTASE SMALL CHAIN): 0.86
fold change - vehicle control (protein TB11.01.0870 R[…] A, 51KDA SUBUNIT, PUTATIVE): 1.05
fold change - vehicle control (protein TB11.01.2560 40S RIBOSOMAL PROTEIN SA, PUTATIVE): 1.05
fold change - vehicle control (protein TB11.01.4880 HY[…], CONSERVED): 0.89
fold change - vehicle control (protein TB11.01.7090 HY[…], CONSERVED): 0.9
fold change - vehicle control (protein TB11.02.2510 GUANINE NUCLEOTIDE-BINDING BETA SUBUNIT-LIKE PROTEIN): 0.96
fold change - vehicle control (protein TB11.02.4170 40S RIBOSOMAL PROTEIN S5, PUTATIVE): 1.39
fold change - vehicle control (protein TB11.03.0250 C[…]): 1.72
fold change - vehicle control (protein TB11.46.0009 HY[…], CONSERVED): 1.02
fold change - vehicle control (protein TB427TMP.01.0620 HY[…], CONSERVED): 0.96
fold change - vehicle control (protein TB427TMP.01.1475 40S RIBOSOMAL PROTEIN S27, PUTATIVE): 1.03
fold change - vehicle control (protein TB427TMP.01.4280 HY[…], CONSERVED): 0.85
fold change - vehicle control (protein TB427TMP.01.4650 HY[…], CONSERVED): 1.21
fold change - vehicle control (protein TB427TMP.01.4810 HY[…], CONSERVED): 0.93
fold change - vehicle control (protein TB427TMP.01.5680 HY[…], CONSERVED): 0.97
fold change - vehicle control (protein TB427TMP.01.8390 HY[…], CONSERVED): 0.8
fold change - vehicle control (protein TB427TMP.02.0230 HY[…], CONSERVED): 1.22
fold change - vehicle control (protein TB427TMP.02.0460 NUCLEOPORIN): 0.88
fold change - vehicle control (protein TB427TMP.02.1106 NUCLEOBASE/NUCLEOSIDE TRANSPORTER 8 1): 1.35
fold change - vehicle control (protein TB427TMP.160.2050 ENDO-BETA-N-ACETYLGLUCOSAMINIDASE, PUTATIVE): 0.89
fold change - vehicle control (protein TB427TMP.160.4310 GLUTAMATE DEHYDROGENASE): 0.49
fold change - vehicle control (protein TB427TMP.160.4450 40S RIBOSOMAL PROTEIN S3, PUTATIVE): 1.06
fold change - vehicle control (protein TB427TMP.160.4630 HY[…], CONSERVED): 0.91
fold change - vehicle control (protein TB427TMP.160.5200 HY[…], CONSERVED): 0.86
fold change - vehicle control (protein TB427TMP.160.5670 HY[…], CONSERVED): 0.81
fold change - vehicle control (protein TB427TMP.211.0930 POLYADENYLATE-BINDING PROTEIN 1): 1.27
fold change - vehicle control (protein TB427TMP.211.1750 MIT[…] PROTEIN, PUTATIVE): 0.97
fold change - vehicle control (protein TB427TMP.211.3510 ATP-DEPENDENT DEAD/H RNA HELICASE, PUTATIVE): 0.96
fold change - vehicle control (protein TB427TMP.211.4540 RNA-BINDING PROTEIN, PUTATIVE): 0.6
fold change - vehicle control (protein TB427TMP.244.2840 HY[…], CONSERVED): 1
fold change - vehicle control (protein TB427.01.1240 CYTIDINE TR[…], PUTATIVE): 0.8
fold change - vehicle control (protein TB427.01.2570 COATOMER BETA SUBUNIT): 0.82
fold change - vehicle control (protein TB427.01.3910 HY[…], CONSERVED): 0.61
fold change - vehicle control (protein TB427.02.450 RETRO[…] SPOT (RHS) PROTEIN, PUTATIVE): 0.84
fold change - vehicle control (protein TB427.04.3350 HY[…], CONSERVED): 1.08
fold change - vehicle control (protein TB427.04.3890 ATP-DEPENDENT RNA HELICASE, PUTATIVE): 0.83
fold change - vehicle control (protein TB427.04.4870 AMINO ACID TRANSPORTER, PUTATIVE): 1.02
fold change - vehicle control (protein TB427.04.750 50S RIBOSOMAL PROTEIN L7AE, PUTATIVE): 0.95
fold change - vehicle control (protein TB427.04.960 HY[…], CONSERVED): 0.72
fold change - vehicle control (protein TB427.05.1490 HY[…], CONSERVED): 0.95
fold change - vehicle control (protein TB427.05.1780 HY[…], CONSERVED): 0.73
fold change - vehicle control (protein TB427.05.3030 INTR[…] PROTEIN IFT122, PUTATIVE): 0.96
fold change - vehicle control (protein TB427.06.3110 PROTEIN KINASE, PUTATIVE (CRK11)): 0.94
fold change - vehicle control (protein TB427.06.5110 DAMAGE-SPECIFIC DNA BINDING PROTEIN, PUTATIVE): 0.9
fold change - vehicle control (protein TB427.07.2670 HY[…], CONSERVED): 0.98
fold change - vehicle control (protein TB427.07.3040 HY[…], CONSERVED): 0.96
fold change - vehicle control (protein TB427.07.3530 HY[…], CONSERVED): 0.91
fold change - vehicle control (protein TB427.07.4970 GLUTAMINE SYNTHETASE, PUTATIVE): 0.92
fold change - vehicle control (protein TB427.07.5560 GLUCOSAMINE-FRUCTOSE-6-PHOSPHATE AMINOTRANSFERASE, PUTATIVE): 0.87
fold change - vehicle control (protein TB427.07.5890 HY[…], CONSERVED): 0.8
fold change - vehicle control (protein TB427.07.7070 HY[…], CONSERVED): 0.79
fold change - vehicle control (protein TB427.07.7460 HY[…], CONSERVED): 0.98
fold change - vehicle control (protein TB427.08.1500 HY[…], CONSERVED): 0.94
fold change - vehicle control (protein TB427.08.1840 HY[…], CONSERVED): 0.7
fold change - vehicle control (protein TB427.08.1960 HY[…], CONSERVED): 0.83
fold change - vehicle control (protein TB427.08.2080 HY[…], CONSERVED): 0.75
fold change - vehicle control (protein TB427.08.3750 NUCLEOLAR PROTEIN, PUTATIVE): 1.04
fold change - vehicle control (protein TB427.08.6390 LYSOPHOSPHOLIPASE, PUTATIVE): 0.97
fold change - vehicle control (protein TB427.10.10610 PROTEIN TYROSINE PHOSPHATASE, PUTATIVE): 0.94
fold change - vehicle control (protein TB427.10.1100 60S RIBOSOMAL PROTEIN L9, PUTATIVE): 1.08
fold change - vehicle control (protein TB427.10.12740): 0.97
fold change - vehicle control (protein TB427.10.15720 […]-ATP-ASE SUBUNIT 9): 0.81
fold change - vehicle control (protein TB427.10.2440 METACASPASE MCA4): 0.88
fold change - vehicle control (protein TB427.10.2900 IMPORTIN BETA-1 SUBUNIT, PUTATIVE): 0.94
fold change - vehicle control (protein TB427.10.3470 HY[…], CONSERVED): 0.79
fold change - vehicle control (protein TB427.10.4110 60S RIBOSOMAL PROTEIN L30): 0.93
fold change - vehicle control (protein TB427.10.4610 […]-MANNOSE SYNTHASE, PUTATIVE): 0.93
fold change - vehicle control (protein TB427.10.5250 HY[…], CONSERVED): 0.89
fold change - vehicle control (protein TB427.10.5840 T[…] 1-BETA, PUTATIVE): 0.85
fold change - vehicle control (protein TB427.10.7410 SUCCINYL-COA LIGASE GDP-FORMING] BETA-CHAIN, PUTATIVE): 0.76
fold change - vehicle control (protein TB927.10.12960 RAS-RELATED PROTEIN RAB-5): 1.03
fold change - vehicle control (protein TB927.10.14800 PROTEIN KINASE, PUTATIVE): 1.13
fold change - vehicle control (protein TB927.10.2980 […]-ATPASE SUBUNIT 11): 1.09
fold change - vehicle control (protein TB927.10.3660 ASPARTATE AMINOTRANSFERASE): 1.09
fold change - vehicle control (protein TB927.10.4570 […] 2): 0.79
fold change - vehicle control (protein TB927.10.5140 PROTEIN KINASE, PUTATIVE): 0.91
fold change - vehicle control (protein TB927.10.6510 CHAPERONIN HSP60, MIT[…]): 0.96
fold change - vehicle control (protein TB927.3.1840 3-OXO-5-ALPHA-STEROID 4-DEHYDROGENASE, PUTATIVE): 1.16
fold change - vehicle control (protein TB927.3.3780 TRYPAREDOXIN): 0.92
fold change - vehicle control (protein TB927.3.740 HY[…], CONSERVED): 0.95
fold change - vehicle control (protein TB927.4.2740 HY[…], CONSERVED): 0.85
fold change - vehicle control (protein TB927.4.3590 T[…] 1-BETA, PUTATIVE): 0.81
fold change - vehicle control (protein TB927.6.4320 HY[…], CONSERVED): 0.98
fold change - vehicle control (protein TB927.7.2550 […] SUBUNIT 5): 0.92
fold change - vehicle control (protein TB927.7.2980 HY[…], CONSERVED): 0.88
fold change - vehicle control (protein TB927.7.5340 HY[…], CONSERVED): 1.48
fold change - vehicle control (protein TB927.7.7430 ATP SYNTHASE ALPHA CHAIN, MIT[…]): 0.92
fold change - vehicle control (protein TB927.8.1990 PEROXIDOXIN): 1.04
fold change - vehicle control (protein TB927.8.4720 AMINO ACID TRANSPORTER, PUTATIVE): 1.06
